Patent US8173638B2 (Boehringer Ingelheim International GmbH, priority 2006, dated 2012)

Biological target: T1, human CB2R (Homo sapiens, UniProt P34972)
T1 construct: host or cells: CHO cells
Assay: CB2R mediated modulation of cAMP synthesis
Type: cell-based
Conditions: for agonistic activity: found through the use of the described assays (CB2 agonists), qualitative statement; for Emax: 0.5 h, CHO cells expressing human CB2R, cAMP inhibited by 1 uM CP55940 defined as 100%, read-out: Agonist Efficacy (%); for EC50: read-out: hCB2 cAMP EC50
Method in brief: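 CHO cells expressing human CB2R treated with compound 30 min at 37 °C in buffer with 1 mM IBMX, 0.25% BSA and 10 uM forskolin. cAMP measured after lysis by DiscoverX-XS kit.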

T1 sequence (P34972 whole entry): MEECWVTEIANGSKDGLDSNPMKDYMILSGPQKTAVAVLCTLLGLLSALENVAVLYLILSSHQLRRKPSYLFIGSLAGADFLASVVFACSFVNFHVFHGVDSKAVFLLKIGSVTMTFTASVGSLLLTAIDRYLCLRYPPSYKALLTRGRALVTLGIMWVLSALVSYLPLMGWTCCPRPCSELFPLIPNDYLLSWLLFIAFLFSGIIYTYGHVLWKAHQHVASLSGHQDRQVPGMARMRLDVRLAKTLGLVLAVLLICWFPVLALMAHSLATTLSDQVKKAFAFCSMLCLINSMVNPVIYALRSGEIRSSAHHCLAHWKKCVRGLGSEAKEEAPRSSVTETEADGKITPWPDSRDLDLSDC

agonistic activity	Emax [%]	EC50 [nM]	SMILES
agonistic activity			CC(C)c1ccc(NC(=O)N2CCCN(C(=O)C3CCOCC3)CC2)cc1 [4-(Tetrahydro-pyran-4-carbonyl)-[1,4]diazepane-1-carboxylic acid (4-isopropyl-phenyl)-amide]
agonistic activity			CCC(C)c1cc(NC(=O)N2CCCN(C(=O)C3CCOCC3)CC2)n(C)n1 (stereo not shown) [4-(Tetrahydro-pyran-4-carbonyl)-[1,4]diazepane-1-carboxylic acid (5-sec-butyl-2-methyl-2H-pyrazol-3-yl)-amide]
agonistic activity			Cc1nc(NC(=O)N2CCCN(C(=O)C3CCOCC3)CC2)sc1C [4-(Tetrahydro-pyran-4-carbonyl)-[1,4]diazepane-1-carboxylic acid (4,5-dimethyl-thiazol-2-yl)-amide]
agonistic activity			CC(=O)NC1CCC(C(=O)N2CCCN(C(=O)Nc3cc(C(C)(C)C)on3)CC2)CC1 (stereo not shown) [4-(4-Acetylamino-cyclohexanecarbonyl)-[1,4]diazepane-1-carboxylic acid (5-tert-butyl-isoxazol-3-yl)-amide]
	105	89	CC(C)c1ccc(NC(=O)N2CCCN(C(=O)CCC3CC3)CC2)cc1 [Compound 55, 4-(3-Cyclopropyl-propionyl)-[1,4]diazepane-1-carboxylic acid (4-isopropyl-phenyl)-amide]
agonistic activity			CSc1ccc(NC(=O)N2CCCN(C(=O)CC3CCOCC3)CC2)cc1 [4-(2-Tetrahydro-pyran-4-yl-acetyl)-[1,4]diazepane-1-carboxylic acid (4-methylsulfanyl-phenyl)-amide]
agonistic activity			CC(C)(C)c1ccc(NC(=O)N2CCCN(C(=O)CC3CCCCC3)CC2)cc1 [4-(2-Cyclohexyl-acetyl)-[1,4]diazepane-1-carboxylic acid (4-tert-butyl-phenyl)-amide]
	96	21	CC(C)(C)c1ccc(NC(=O)N2CCCN(C(=O)CCC3CCCCC3)CC2)cc1 [Compound 108, 4-(3-Cyclohexyl-propionyl)-[1,4]diazepane-1-carboxylic acid (4-tert-butyl-phenyl)-amide]
agonistic activity			O=C(Nc1ccc(Cl)c(Cl)c1)N1CCCN(C(=O)C2CCCCC2)CC1 [4-Cyclohexanecarbonyl-[1,4]diazepane-1-carboxylic acid (3,4-dichloro-phenyl)-amide]
	104	19	CC(C)(C)c1cc(NC(=O)N2CCCN(C(=O)C3CCCCCC3)CC2)no1 [Compound 152, 4-Cycloheptanecarbonyl-[1,4]diazepane-1-carboxylic acid (5-tert-butyl-isoxazol-3-yl)-amide]
agonistic activity			CC(c1ccc(NC(=O)N2CCCN(C(=O)C3CCOCC3)CC2)cc1)C(F)(F)F (stereo not shown) [4-(Tetrahydro-pyran-4-carbonyl)-[1,4]diazepane-1-carboxylic acid [4-(2,2,2-trifluoro-1-methyl-ethyl)-phenyl]-amide]
agonistic activity			O=C(CC1CCOCC1)N1CCCN(C(=O)Nc2ccc(OC(F)(F)F)cc2)CC1 [4-(2-Tetrahydro-pyran-4-yl-acetyl)-[1,4]diazepane-1-carboxylic acid (4-trifluoromethoxy-phenyl)-amide]
agonistic activity			CC(C)(C)c1cccc(NC(=O)N2CCCN(C(=O)N3CCS(=O)(=O)CC3)CC2)c1 [4-(1,1-Dioxo-1λ^6-thiomorpholine-4-carbonyl)-[1,4]diazepane-1-carboxylic acid (3-tert-butyl-phenyl)-amide]
agonistic activity			CC(C)(C)c1ccc(NC(=O)N2CCCN(C(=O)c3ccc(Cl)c(Cl)c3)CC2)cc1 [4-(3,4-Dichloro-benzoyl)-[1,4]diazepane-1-carboxylic acid (4-tert-butyl-phenyl)-amide]
agonistic activity			O=C(CC1CCOCC1)N1CCCN(C(=O)Nc2ccc3ccccc3c2)CC1 [4-(2-Tetrahydro-pyran-4-yl-acetyl)-[1,4]diazepane-1-carboxylic acid (2-naphthyl)-amide]
agonistic activity			CCC(C)c1ccc(NC(=O)N2CCCN(C(=O)N3CCOCC3)CC2)cc1 (stereo not shown) [4-(Morpholine-4-carbonyl)-[1,4]diazepane-1-carboxylic acid (4-sec-butyl-phenyl)-amide]
	82	20	CCC(C)c1ccc(NC(=O)N2CCCN(C(=O)N3CCOCC3)CC2)cc1 (stereo not shown) [Compound 218, 4-(Morpholine-4-carbonyl)-[1,4]diazepane-1-carboxylic acid (4-sec-butyl-phenyl)-amide]

agonistic activity	Emax [%]	EC50 [nM]	SMILES
agonistic activity			O=C(Nc1ccc2ccccc2c1)N1CCCN(C(=O)c2ccc(Cl)cc2)CC1 [4-(4-Chloro-benzoyl)-[1,4]diazepane-1-carboxylic acid naphthalen-2-ylamide]
	104	13	O=C(CC1CCCC1)N1CCCN(C(=O)Nc2ccc(Br)c(C(F)(F)F)c2)CC1 [Compound 132, 4-(2-Cyclopentyl-acetyl)-[1,4]diazepane-1-carboxylic acid (4-bromo-3-trifluoromethyl-phenyl)-amide]
agonistic activity			CCC(C)c1cc(NC(=O)N2CCCN(C(=O)N3CCOCC3)CC2)on1 (stereo not shown) [4-(Morpholine-4-carbonyl)-[1,4]diazepane-1-carboxylic acid (3-sec-butyl-isoxazol-5-yl)-amide]
agonistic activity			Cc1ccc(C(=O)N2CCCN(C(=O)Nc3ccc4ccccc4c3)CC2)cc1 [4-(4-Methyl-benzoyl)-[1,4]diazepane-1-carboxylic acid naphthalen-2-ylamide]
agonistic activity			CCc1ccc(NC(=O)N2CCCN(C(=O)CC3CCCC3)CC2)cc1 [4-(2-Cyclopentyl-acetyl)-[1,4]diazepane-1-carboxylic acid (4-ethyl-phenyl)-amide]
agonistic activity			CCC(C)c1ccc(NC(=O)N2CCCN(C(=O)c3ccccn3)CC2)cc1 (stereo not shown) [4-(Pyridine-2-carbonyl)-[1,4]diazepane-1-carboxylic acid (4-sec-butyl-phenyl)-amide]
	91	90	O=C(Nc1nc(C2CC2)cs1)N1CCCN(C(=O)c2ccc(Cl)cc2)CC1 [Compound 166, 4-(4-Chloro-benzoyl)-[1,4]diazepane-1-carboxylic acid (4-cyclopropyl-thiazol-2-yl)-amide]
	111	17	CC(C)(C)c1cnc(NC(=O)N2CCCN(C(=O)C3CCC(O)CC3)CC2)s1 (stereo not shown) [Compound 173, 4-(4-Hydroxy-cyclohexanecarbonyl)-[1,4]diazepane-1-carboxylic acid (5-tert-butyl-thiazol-2-yl)-amide]
agonistic activity			CCCC(O)c1ccc(NC(=O)N2CCCN(C(=O)CC3CCCC3)CC2)cc1 (stereo not shown) [4-(2-Cyclopentyl-acetyl)-[1,4]diazepane-1-carboxylic acid [4-(1-hydroxy-butyl)-phenyl]-amide]
agonistic activity			CCCC(=O)c1ccc(NC(=O)N2CCCN(C(=O)CC3CCCC3)CC2)cc1 [4-(2-Cyclopentyl-acetyl)-[1,4]diazepane-1-carboxylic acid (4-butyryl-phenyl)-amide]
agonistic activity			CC(C)(C)c1cc(NC(=O)N2CCCN(C(=O)C3CCCC3)CC2)no1 [4-Cyclopentanecarbonyl-[1,4]diazepane-1-carboxylic acid (5-tert-butyl-isoxazol-3-yl)-amide]
agonistic activity			O=C(CC1CCCC1)N1CCCN(C(=O)Nc2ccc3ccccc3c2)CC1 [4-(2-Cyclopentyl-acetyl)-[1,4]diazepane-1-carboxylic acid (2-naphthyl)-amide]
agonistic activity			CC(C)(C)c1cc(NC(=O)N2CCCN(C(=O)N3CCCOCC3)CC2)no1 [4-([1,4]Oxazepane-4-carbonyl)-[1,4]diazepane-1-carboxylic acid (5-tert-butyl-isoxazol-3-yl)-amide]
	96	120	O=C(Nc1ccc(SC(F)(F)F)cc1)N1CCCN(C(=O)C2CCOCC2)CC1 [Compound 81, 4-(Tetrahydro-pyran-4-carbonyl)-[1,4]diazepane-1-carboxylic acid (4-trifluoromethylsulfanyl-phenyl)-amide]
agonistic activity			CS(=O)(=O)c1ccc(NC(=O)N2CCCN(C(=O)CC3CCOCC3)CC2)cc1 [4-(2-Tetrahydro-pyran-4-yl-acetyl)-[1,4]diazepane-1-carboxylic acid (4-methanesulfonyl-phenyl)-amide]
agonistic activity			CS(=O)(=O)c1ccc(NC(=O)N2CCCN(C(=O)CC3CCCC3)CC2)cc1 [4-(2-Cyclopentyl-acetyl)-[1,4]diazepane-1-carboxylic acid (4-methanesulfonyl-phenyl)-amide]

SMILES	agonistic activity	Emax [%]	EC50 [nM]
CC(C)(C)c1cc(NC(=O)N2CCCN(C(=O)NC3CCCCC3)CC2)no1	agonistic activity		
CC(C)(C)c1cc(NC(=O)N2CCCN(C(=O)CC3CCCC3)CC2)no1 [4-(2-Cyclopentyl-acetyl)-[1,4]diazepane-1-carboxylic acid (5-tert-butyl-isoxazol-3-yl)-amide]	agonistic activity		
O=C(Nc1cc(-c2ccccc2)on1)N1CCCN(C(=O)C2CCOCC2)CC1 [4-(Tetrahydro-pyran-4-carbonyl)-[1,4]diazepane-1-carboxylic acid (5-phenyl-isoxazol-3-yl)-amide]	agonistic activity		
CC(C)(C)c1cc(NC(=O)N2CCCN(C(=O)c3ccc(C(F)(F)F)cc3)CC2)no1 [4-(4-Trifluoromethyl-benzoyl)-[1,4]diazepane-1-carboxylic acid (5-tert-butyl-isoxazol-3-yl)-amide]	agonistic activity		
CC(C)(C)c1cc(NC(=O)N2CCCN(C(=O)C3CCOCC3)CC2)[nH]n1 [4-(Tetrahydro-pyran-4-carbonyl)-[1,4]diazepane-1-carboxylic acid (5-tert-butyl-2H-pyrazol-3-yl)-amide]	agonistic activity		
